Data from patent US20250270172A1, “Pyrimidine Derivatives As Modulators of the 5-HT2A Serotonin Receptor Useful For The Treatment of Disorders Related Thereto” (Arena Pharmaceuticals, Inc., priority 2020, published 2025).

Target: 5-HT2A (Homo sapiens (Human), UniProt P28223)
Assay: Radioligand binding assay, [^3H]5-HT competition, 5-HT2A
Conditions: [^3H]5-HT radioligand, membranes of HEK293 cells expressing recombinant 5-HT2A; Ki from IC50 by Cheng-Prusoff; read-out: 5-HT2A serotonin binding Ki value

Chain of 5-HT2A (P28223 whole entry): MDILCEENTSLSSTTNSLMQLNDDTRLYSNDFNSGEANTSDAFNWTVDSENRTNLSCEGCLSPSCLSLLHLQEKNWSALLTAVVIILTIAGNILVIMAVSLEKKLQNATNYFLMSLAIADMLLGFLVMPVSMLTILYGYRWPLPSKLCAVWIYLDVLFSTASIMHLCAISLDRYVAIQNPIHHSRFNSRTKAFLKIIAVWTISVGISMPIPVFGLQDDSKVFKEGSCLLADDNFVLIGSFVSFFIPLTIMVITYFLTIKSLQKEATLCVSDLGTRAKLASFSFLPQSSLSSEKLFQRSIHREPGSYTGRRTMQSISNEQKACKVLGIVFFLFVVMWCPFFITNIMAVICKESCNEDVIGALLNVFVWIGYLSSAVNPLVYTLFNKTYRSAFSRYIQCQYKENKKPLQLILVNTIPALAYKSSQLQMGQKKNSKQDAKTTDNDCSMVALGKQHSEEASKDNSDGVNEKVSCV

SMILES	Ki
Cc1ncnc(C)c1-c1cc(NC(=O)CNC2CC2)ccc1OCCN1CCCC1 [Compound 288, 2-(Cyclopropylamino)-N-[3-(4,6-dimethylpyrimidin-5-yl)-4-(2-pyrrolidin-1-ylethoxy)phenyl]acetamide]	81.2 nM
Cc1ncnc(C)c1-c1cc(NC(=O)CNC2CCCC2)ccc1OCCN1CCCC1 [Compound 289, 2-(cyclopentylamino)-N-(3-(4,6-dimethylpyrimidin-5-yl)-4-(2-(pyrrolidin-1-yl)ethoxy)phenyl)acetamide]	123 nM
Cc1cnn(C)c1C(=O)Nc1ccc(OCCN2CCCC2)c(-c2c(C)ncnc2C)c1 [Compound 292, N-(3-(4,6-dimethylpyrimidin-5-yl)-4-(2-(pyrrolidin-1-yl)ethoxy)phenyl)-1,4-dimethyl-1H-pyrazole-5-carboxamide]	17.6 nM
Cc1ncnc(C)c1-c1cc(NC(=O)Cc2nccs2)ccc1OCCN1CCCC1 [Compound 294, N-(3-(4,6-dimethylpyrimidin-5-yl)-4-(2-(pyrrolidin-1-yl)ethoxy)phenyl)-2-(thiazol-2-yl)acetamide]	17.9 nM
Cc1ncnc(C)c1-c1cc(NC(=O)c2c(F)ccn2C)ccc1OCCN1CCCC1 [Compound 295, N-[3-(4,6-dimethylpyrimidin-5-yl)-4-(2-pyrrolidin-1-ylethoxy)phenyl]-3-fluoro-1-methyl-pyrrole-2-carboxamide]	2.01 nM
Cc1ncnc(C)c1-c1cc(NC(=O)C2CC(F)(F)C2)ccc1OCCN1CCCC1 [Compound 296, N-(3-(4,6-dimethylpyrimidin-5-yl)-4-(2-(pyrrolidin-1-yl)ethoxy)phenyl)-3,3-difluorocyclobutane-1-carboxamide]	4.49 nM
Cc1ncnc(C)c1-c1cc(NC(=O)c2cccc(F)c2)ccc1OCCN1CCCC1 [Compound 297, N-(3-(4,6-dimethylpyrimidin-5-yl)-4-(2-(pyrrolidin-1-yl)ethoxy)phenyl)-3-fluorobenzamide]	2.71 nM
Cc1ncnc(C)c1-c1cc(NC(=O)c2ccccc2F)ccc1OCCN1CCCC1 [Compound 298, N-(3-(4,6-dimethylpyrimidin-5-yl)-4-(2-(pyrrolidin-1-yl)ethoxy)phenyl)-2-fluorobenzamide]	16.9 nM
Cc1ccccc1C(=O)Nc1ccc(OCCN2CCCC2)c(-c2c(C)ncnc2C)c1 [Compound 299, N-(3-(4,6-dimethylpyrimidin-5-yl)-4-(2-(pyrrolidin-1-yl)ethoxy)phenyl)-2-methylbenzamide]	20.6 nM
Cc1cccc(C(=O)Nc2ccc(OCCN3CCCC3)c(-c3c(C)ncnc3C)c2)c1 [Compound 300, N-(3-(4,6-dimethylpyrimidin-5-yl)-4-(2-(pyrrolidin-1-yl)ethoxy)phenyl)-3-methylbenzamide]	1.48 nM
Cc1ccc(C(=O)Nc2ccc(OCCN3CCCC3)c(-c3c(C)ncnc3C)c2)cc1 [Compound 301, N-(3-(4,6-dimethylpyrimidin-5-yl)-4-(2-(pyrrolidin-1-yl)ethoxy)phenyl)-4-methylbenzamide]	3.4 nM
Cc1ncnc(C)c1-c1cc(NC(=O)[C@H]2C[C@@H](F)C2)ccc1OCCN1CCCC1 [Compound 302, (1s,3s)-N-(3-(4,6-dimethylpyrimidin-5-yl)-4-(2-(pyrrolidin-1-yl)ethoxy)phenyl)-3-fluorocyclobutane-1-carboxamide]	3.18 nM
Cc1ncnc(C)c1-c1cc(NC(=O)[C@H]2C[C@H](F)C2)ccc1OCCN1CCCC1 [Compound 303, (1r,3r)-N-(3-(4,6-dimethylpyrimidin-5-yl)-4-(2-(pyrrolidin-1-yl)ethoxy)phenyl)-3-fluorocyclobutane-1-carboxamide]	9.36 nM
COc1cccc(CC(=O)Nc2ccc(OCCN3CCC3)c(-c3c(C)ncnc3C)c2)c1 [Compound 311, N-(4-(2-(azetidin-1-yl)ethoxy)-3-(4,6-dimethylpyrimidin-5-yl)phenyl)-2-(3-methoxyphenyl)acetamide]	3.01 nM
COc1ccc(CC(=O)Nc2ccc(OCCN3CCC3)c(-c3c(C)ncnc3C)c2)cc1 [Compound 313, N-(4-(2-(azetidin-1-yl)ethoxy)-3-(4,6-dimethylpyrimidin-5-yl)phenyl)-2-(4-methoxyphenyl)acetamide]	1.7 nM
Cc1ncnc(C)c1-c1cc(NC(=O)Cc2ccc(F)cn2)ccc1OCCN1CCC1 [Compound 315, N-(4-(2-(azetidin-1-yl)ethoxy)-3-(4,6-dimethylpyrimidin-5-yl)phenyl)-2-(5-fluoropyridin-2-yl)acetamide]	12.6 nM
CCOC1CC1C(=O)Nc1ccc(OCCN2CCC2)c(-c2c(C)ncnc2C)c1 (stereo not drawn) [Compound 317, N-(4-(2-(azetidin-1-yl)ethoxy)-3-(4,6-dimethylpyrimidin-5-yl)phenyl)-2-ethoxycyclopropane-1-carboxamide]	96.3 nM
Cc1ncnc(C)c1-c1cc(NC(=O)c2cccc(F)c2)ccc1OCCN1CCC1 [Compound 320, N-(4-(2-(azetidin-1-yl)ethoxy)-3-(4,6-dimethylpyrimidin-5-yl)phenyl)-3-fluorobenzamide]	1.77 nM
Cc1cccc(C(=O)Nc2ccc(OCCN3CCC3)c(-c3c(C)ncnc3C)c2)c1 [Compound 322, N-(4-(2-(azetidin-1-yl)ethoxy)-3-(4,6-dimethylpyrimidin-5-yl)phenyl)-3-methylbenzamide]	3.39 nM
Cc1ccc(C(=O)Nc2ccc(OCCN3CCC3)c(-c3c(C)ncnc3C)c2)cc1 [Compound 323, N-(4-(2-(azetidin-1-yl)ethoxy)-3-(4,6-dimethylpyrimidin-5-yl)phenyl)-4-methylbenzamide]	3.77 nM
Cc1ncnc(C)c1-c1cc(NC(=O)c2ccccc2C#N)ccc1OCCN1CCC1 [Compound 324, N-(4-(2-(azetidin-1-yl)ethoxy)-3-(4,6-dimethylpyrimidin-5-yl)phenyl)-2-cyanobenzamide]	59700 nM
Cc1ncnc(C)c1-c1cc(NC(=O)c2ccc(C#N)cc2)ccc1OCCN1CCC1 [Compound 326, N-(4-(2-(azetidin-1-yl)ethoxy)-3-(4,6-dimethylpyrimidin-5-yl)phenyl)-4-cyanobenzamide]	13.7 nM
Cc1cnn(C)c1C(=O)Nc1ccc(OCCN2CCC2)c(-c2c(C)ncnc2C)c1 [Compound 327, N-(4-(2-(azetidin-1-yl)ethoxy)-3-(4,6-dimethylpyrimidin-5-yl)phenyl)-1,4-dimethyl-1H-pyrazole-5-carboxamide]	15.9 nM
Cc1ncnc(C)c1-c1cc(NC(=O)C2(CF)CC2)ccc1OCCN1CCC1 [Compound 328, N-(4-(2-(azetidin-1-yl)ethoxy)-3-(4,6-dimethylpyrimidin-5-yl)phenyl)-1-(fluoromethyl)cyclopropane-1-carboxamide]	13.6 nM
Cc1ncnc(C)c1-c1cc(NC(=O)Cc2nccs2)ccc1OCCN1CCC1 [Compound 329, N-(4-(2-(azetidin-1-yl)ethoxy)-3-(4,6-dimethylpyrimidin-5-yl)phenyl)-2-(thiazol-2-yl)acetamide]	11.5 nM
Cc1ncnc(C)c1-c1cc(NC(=O)c2ncccc2F)ccc1OCCN1CCC1 [Compound 330, N-(4-(2-(azetidin-1-yl)ethoxy)-3-(4,6-dimethylpyrimidin-5-yl)phenyl)-3-fluoropicolinamide]	334 nM
Cc1ncnc(C)c1-c1cc(NC(=O)c2cnccc2F)ccc1OCCN1CCC1 [Compound 331, N-(4-(2-(azetidin-1-yl)ethoxy)-3-(4,6-dimethylpyrimidin-5-yl)phenyl)-4-fluoronicotinamide]	23.7 nM
